# Tested on: human Kv3.1 channels
# Test: Kv3.1 channel modulation, IonWorks Quattro planar array electrophysiology in HEK-hKv3.1 cells
# Format: cell-based
# Details: hKv3.1 HEK cells, -15 mV step
# Excerpt: The ability of the compounds of the invention to modulate the voltage-gated potassium channel subtypes Kv3.3/Kv3.2/Kv3.1 may be determined using the following assay. Analogous methods may be used to investigate the ability of the compounds of the invention to modulate other channel subtypes.
# To assess compound effects on human Kv3.1 channels (hKv3.1): Human embryonic kidney (HEK)-hKv3.1 cell line is generated by transfecting HEK-293 cells with an expression vector with human Kv3.1 (NM_004976.4). Cells are cultured with MEM supplemented with 10% Heat-Inactivated FBS, 2 mM L-glutamine, 1% Penicillin-Streptomycin, and 0.6 mg/ml of Geneticin (G418). HEK-hKv3.1b cells were amplified in T175 cm2 flask at 37° C. with 5% CO2, using MEM amplification medium, containing the G418 selection antibiotic (0.6 mg/ml). Cells were detached every 3-4 days, using DPBS to wash twice the flask, then TrypLE to dislodge the cells, and re-plated at a density of 2-4×10^6 cells/flask.
# The day of the experiment, cells are removed from the incubator and the culture medium removed. […]
# Experiments are conducted at r.t. using IonWorks Quattro™ planar array electrophysiology technology (Molecular Devices Corp.) with PatchPlate™ PPC. […] Planar electrode hole resistances (Rp) are determined by applying a 10 mV voltage step across each well. […]
smiles,measurement,setting,value
"CC[C@@H]1NC(=O)N(c2cnc(Oc3ccc(C)c4c3C3(CC3)CO4)cn2)C1=O [Example 15, (5S)-5-ethyl-3-[5-(7-methylspiro[2H-benzofuran-3,1′-cyclopropane]-4-yl)oxypyrazin-2-yl]imidazolidine-2,4-dione]",Kv3.1 pEC50,EC50 = 50% of maximum increase by reference compound,5.10
same,Kv3.1 max R %,normalised to maximum effect of reference compound (50 microM),136%
